In ChEMBL document CHEMBL5303573, “Mapping human microbiome drug metabolism by gut bacteria and their genes” (Nature, 2019):

Key:
[1] = The drug is tested on Bifidobacterium breve strain: DSM20213 for biotransformation. The drug concentrations were measured before and after a 12-h incubation by liquid-chromatography-coupled mass spectrometry (LC–MS); conditions: 2 µM
[2] = The drug is tested on Alistipes indistinctus strain: DSM22520 for biotransformation. The drug concentrations were measured before and after a 12-h incubation by liquid-chromatography-coupled mass spectrometry (LC–MS); conditions: 2 µM
[3] = The drug is tested on Bacteroides cellulosilyticus strain: DSM14838 for biotransformation. The drug concentrations were measured before and after a 12-h incubation by liquid-chromatography-coupled mass spectrometry (LC–MS); conditions: 2 µM
[4] = The drug is tested on Bacteroides fragilis strain: HMW615 for biotransformation. The drug concentrations were measured before and after a 12-h incubation by liquid-chromatography-coupled mass spectrometry (LC–MS); conditions: 2 µM
[5] = The drug is tested on Bacteroides fragilis strain: ATCC43859 for biotransformation. The drug concentrations were measured before and after a 12-h incubation by liquid-chromatography-coupled mass spectrometry (LC–MS); conditions: 2 µM
[6] = The drug is tested on Bacteroides ovatus strain: ATCC8483 for biotransformation. The drug concentrations were measured before and after a 12-h incubation by liquid-chromatography-coupled mass spectrometry (LC–MS); conditions: 2 µM
[7] = The drug is tested on Bacteroides xylanisolvens strain: DSM18836 for biotransformation. The drug concentrations were measured before and after a 12-h incubation by liquid-chromatography-coupled mass spectrometry (LC–MS); conditions: 2 µM
[8] = The drug is tested on Odoribacter splanchnicus strain: fecal isolate for biotransformation. The drug concentrations were measured before and after a 12-h incubation by liquid-chromatography-coupled mass spectrometry (LC–MS); conditions: 2 µM
[9] = The drug is tested on Clostridium sp. strain: fecal isolate for biotransformation. The drug concentrations were measured before and after a 12-h incubation by liquid-chromatography-coupled mass spectrometry (LC–MS); conditions: 2 µM
[10] = The drug is tested on Edwardsiella tarda strain: ATCC23685 for biotransformation. The drug concentrations were measured before and after a 12-h incubation by liquid-chromatography-coupled mass spectrometry (LC–MS); conditions: 2 µM
[11] = bacteroides eggerthii, 12 h, 2 µM
Description: The drug is tested on Bacteroides eggerthii strain: DSM20697 for biotransformation. The drug concentrations were measured before and after a 12-h incubation by liquid-chromatography-coupled mass spectrometry (LC–MS)

[12] = bacteroides fragilis, 12 h, 2 µM
Description: The drug is tested on Bacteroides fragilis strain: NCTC 9343 for biotransformation. The drug concentrations were measured before and after a 12-h incubation by liquid-chromatography-coupled mass spectrometry (LC–MS)

[13] = bacteroides fragilis, 12 h, 2 µM; remark: listed apart in the source
Description: The drug is tested on Bacteroides fragilis strain: DS-208 for biotransformation. The drug concentrations were measured before and after a 12-h incubation by liquid-chromatography-coupled mass spectrometry (LC–MS)

[14] = anaerostipes sp., 12 h, 2 µM
Description: The drug is tested on Anaerostipes sp. strain: fecal isolate for biotransformation. The drug concentrations were measured before and after a 12-h incubation by liquid-chromatography-coupled mass spectrometry (LC–MS)

[15] = The drug is tested on Bacteroides uniformis strain: ATCC8492 for biotransformation. The drug concentrations were measured before and after a 12-h incubation by liquid-chromatography-coupled mass spectrometry (LC–MS); conditions: 2 µM
[16] = The drug is tested on Bacteroides vulgatus strain: ATCC8482 for biotransformation. The drug concentrations were measured before and after a 12-h incubation by liquid-chromatography-coupled mass spectrometry (LC–MS); conditions: phocaeicola vulgatus, 2 µM
[17] = The drug is tested on Parabacteroides merdae strain: ATCC43184 for biotransformation. The drug concentrations were measured before and after a 12-h incubation by liquid-chromatography-coupled mass spectrometry (LC–MS); conditions: 2 µM
[18] = The drug is tested on Eubacterium rectale strain: ATCC33656 for biotransformation. The drug concentrations were measured before and after a 12-h incubation by liquid-chromatography-coupled mass spectrometry (LC–MS); conditions: agathobacter rectalis, 2 µM

Structure (SMILES)	Bacterial Biotransformation [1]	Bacterial Biotransformation [2]	Bacterial Biotransformation [3]	Bacterial Biotransformation [4]	Bacterial Biotransformation [5]	Bacterial Biotransformation [6]	Bacterial Biotransformation [7]	Bacterial Biotransformation [8]	Bacterial Biotransformation [9]	Bacterial Biotransformation [10]	Bacterial Biotransformation [11]	Bacterial Biotransformation [12]	Bacterial Biotransformation [13]	Bacterial Biotransformation [14]	Bacterial Biotransformation [15]	Bacterial Biotransformation [16]	Bacterial Biotransformation [17]	Bacterial Biotransformation [18]
O=C1CN2Cc3c(ccc(Cl)c3Cl)N=C2N1 [ANAGRELIDE]	Compound NOT metabolized	Compound NOT metabolized	Compound NOT metabolized	Compound NOT metabolized	Compound NOT metabolized	Compound NOT metabolized	Compound NOT metabolized	Compound metabolized	Compound metabolized	Compound NOT metabolized	Compound NOT metabolized	Compound NOT metabolized	Compound NOT metabolized	Compound NOT metabolized	–	–	–	–
CC(C)(C#N)c1cc(Cn2cncn2)cc(C(C)(C)C#N)c1 [ANASTROZOLE]	Compound NOT metabolized	Compound NOT metabolized	Compound NOT metabolized	Compound NOT metabolized	–	Compound metabolized	Compound metabolized	Compound metabolized	Compound metabolized	Compound NOT metabolized	Compound metabolized	Compound metabolized	Compound NOT metabolized	Compound NOT metabolized	Compound metabolized	Compound metabolized	Compound metabolized	Compound NOT metabolized
CCCC1O[C@@H]2C[C@H]3[C@@H]4CCC5=CC(=O)C=C[C@]5(C)[C@H]4[C@@H](O)C[C@]3(C)[C@]2(C(=O)CO)O1 (stereo partly drawn) [BUDESONIDE]	Compound NOT metabolized	Compound NOT metabolized	Compound NOT metabolized	Compound metabolized	Compound metabolized	Compound NOT metabolized	–	Compound metabolized	Compound metabolized	Compound NOT metabolized	Compound metabolized	–	–	Compound NOT metabolized	–	Compound metabolized	Compound metabolized	Compound NOT metabolized
CCCC(C)(COC(N)=O)COC(=O)NC(C)C (stereo not drawn) [CARISOPRODOL]	Compound NOT metabolized	Compound NOT metabolized	Compound metabolized	Compound metabolized	Compound metabolized	–	Compound metabolized	–	Compound metabolized	–	–	Compound metabolized	Compound metabolized	Compound NOT metabolized	Compound metabolized	Compound metabolized	Compound NOT metabolized	Compound NOT metabolized
O=C(O)COCCN1CCN(C(c2ccccc2)c2ccc(Cl)cc2)CC1 (stereo not drawn) [CETIRIZINE]	Compound NOT metabolized	Compound metabolized	Compound metabolized	Compound metabolized	Compound metabolized	–	Compound metabolized	–	–	Compound NOT metabolized	Compound metabolized	Compound metabolized	Compound metabolized	Compound NOT metabolized	Compound metabolized	Compound metabolized	Compound NOT metabolized	Compound NOT metabolized
COC(=O)[C@H](c1ccccc1Cl)N1CCc2sccc2C1.O=S(=O)(O)O [CLOPIDOGREL BISULFATE]	Compound NOT metabolized	Compound NOT metabolized	Compound NOT metabolized	Compound metabolized	Compound metabolized	Compound metabolized	Compound metabolized	Compound metabolized	Compound metabolized	Compound NOT metabolized	Compound metabolized	Compound metabolized	Compound metabolized	Compound NOT metabolized	Compound metabolized	Compound metabolized	Compound metabolized	–
c1ccc([C@H]2CN3CCSC3=N2)cc1 [LEVAMISOLE]	Compound metabolized	–	Compound NOT metabolized	–	Compound metabolized	Compound metabolized	Compound metabolized	Compound metabolized	Compound metabolized	Compound metabolized	Compound metabolized	Compound metabolized	Compound metabolized	Compound NOT metabolized	Compound metabolized	Compound metabolized	Compound NOT metabolized	Compound NOT metabolized
Cc1nc2n(c(=O)c1CCN1CCC(c3noc4cc(F)ccc34)CC1)CCCC2 [RISPERIDONE]	Compound metabolized	Compound metabolized	Compound NOT metabolized	–	Compound metabolized	Compound NOT metabolized	Compound NOT metabolized	Compound metabolized	Compound metabolized	Compound NOT metabolized	–	Compound NOT metabolized	Compound metabolized	–	Compound NOT metabolized	Compound NOT metabolized	Compound NOT metabolized	Compound metabolized
CCOC(=O)[C@H](CCc1ccccc1)N[C@@H](C)C(=O)N1[C@H](C(=O)O)C[C@H]2CCCC[C@@H]21 [TRANDOLAPRIL]	Compound metabolized	Compound NOT metabolized	Compound metabolized	Compound metabolized	Compound metabolized	–	Compound metabolized	Compound metabolized	–	Compound NOT metabolized	Compound metabolized	Compound metabolized	Compound metabolized	Compound NOT metabolized	Compound metabolized	Compound metabolized	Compound NOT metabolized	Compound NOT metabolized
